Like-named read-outs stand apart in the source and are kept apart here.
Columns and labels:
[1] = test system: primary human hepatocytes (PH, PHHs); test: Cell viability assay (MTT) of primary human hepatocytes after 24 hours drug treatment; format: cell-based; settings: Hepatocyte, read-out: IC50 PH
Method: Cryopreserved PHHs were obtained from Life Technologies (Carlsbad, Calif., USA) and BD Biosciences (Franklin Lakes, N.J., USA). The cells were thawed in a 37° C. water bath and resuspended in pre-warmed InVitroGRO HT Thawing Medium (Celsis, In Vitro Technologies, Baltimore, Md., USA). The cells were centrifuged at 800 rpm at 4° C. and the cell pellet was resuspended in InVitroGRO CP Plating Medium (containing 0.02% Torpedo Antibiotic Mix). Cells were counted and 50,000 cells were plated into each well of 96-well plates (Nunc, Naperville, Ill., USA) pre-coated with neutralized 1.5 mg/ml PureCol® Bovine Collagen solution, Type 1 (Advanced Biomatrix, San Diego, Calif., USA). After allowing for cell attachment for 4 hours, the media was changed to William's media E (Sigma-Aldrich, Singapore), supplemented with 1 mg/ml bovine serum albumin (Sigma), 1× insulin-transferrin-selenium and 1×MEM non-essential amino acids (Gibco, Carlsbad, Calif., USA), 100 nM dexamethasone (Sigma), 0.3 mg/ml L-glutamine (Lonza, Basel, Switzerland), 100 U/ml penicillin and 100 μg/ml streptomycin (Cellgro, Manassas, Va.). Culture medium was changed daily. Three different lots of hepatocytes were used for the experiments. All assays were performed after 2 days of culture.
(§1) Cell viability of differentiated hepatocytes was measured 24 hours after treatment with drugs using CellTiter 96® Non-Radioactive Cell Proliferation Assay (MTT) (Promega, Madison, Wis., USA) according to manufacturer's instructions. The following drugs were used for the cell viability assays: Acetaminophen, Diclofenac, Digoxin, Chlorpromazine, Troglitazone and Quinidine (all drugs from Sigma). Stock solutions of drugs were prepared in DMSO and then diluted in media to obtain desired working concentrations. Controls were treated with DMSO alone (in absence of test compounds) and considered as 100% viability value.
(§2) One of the major applications of hepatocytes is toxicity screening in order to aid drug development and discovery. Researchers have tried to predict drug-induced cytotoxicity in vitro using HepG2, HepaRG primary human hepatocyte (PH) as well as hESC/hiPSC-derived hepatocyte like cells. Although primary human hepatocyte (PH) are considered the gold standard for drug metabolism and toxicity in vitro, cells lines such as HepG2 and HepaRG are less expensive than primary human hepatocyte (PH) and reproducible experiments are easier to perform than they are with primary human hepatocyte (PHs). However, 30% of the compounds were incorrectly classified as nontoxic. To overcome these problems, it would be highly advantageous if hESC/hiPSC derived hepatocytes could be used to predict drug-induced toxicity. To examine its applicability to drug screening, small molecule-derived hepatocytes (SM-Hep) were treated with various drugs that cause hepatotoxicity. Cell viability, assessed using MTT assay, was compared to growth factor-derived hepatoctyes (GF-Hep) as well as primary human hepatocyte (PH). The susceptibility of small molecule-derived hepatocytes (SM-Hep) to all the drugs tested was similar to that of the growth factor-derived hepatoctyes (GF-Hep) (FIG. 6).

[2] = test system: SM-Hep (hepatocytes derived from hESCs using small molecules); test: Cell viability assay (MTT) of small molecule-derived hepatocytes after 24 hours drug treatment; format: cell-based; settings: Homo sapiens, Hepatocyte, read-out: IC50 SM-Hep
Method: (§3) The differentiation was initiated when hESCs reached a confluence level of approximately 80%. […] Briefly, basal differentiation medium was composed of 60% DMEM-low glucose (Gibco, Carlsbad, Calif., USA), 40% MCDB-201-water (Sigma), 0.25× Linoleic acid—Bovine serum albumin (LA-BSA) (Sigma), 0.25× Insulin-transferrin-selenium (ITS) (Sigma), 100 U/mL Penicillin and 100 μg/mL Streptomycin (Cellgro), 0.1 mM L-Ascorbic Acid (Sigma), 1 μM Dexamethasone (Sigma) and 110 μM 2-mercaptoethanol (Gibco).
as §1, §2

[3] = test system: GF-Hep (hepatocytes derived from hESCs using growth factors); test: Cell viability assay (MTT) of growth factor-derived hepatocytes after 24 hours drug treatment; format: cell-based; settings: Homo sapiens, Hepatocyte, read-out: IC50 GF-Hep
Method: as §3, §1, §2

[4] = test system: hESCs (H9); test: qPCR of pluripotency and definitive endoderm markers in hESCs treated for 6 days; format: cell-based, human; settings: among small molecule combinations
Method: hESC cell line, H9 (WiCell Research Institute, Madison, Wis.) was cultured and propagated on tissue culture plates coated with matrigel (BD Biosciences, San Jose, Calif., USA) in mTeSRTM 1 media (Stem Cell Technologies, Vancouver, BC, Canada). Cultures were passaged at intervals of 5-7 days by incubation with 1 mg/ml dispase (Stem Cell Technologies) for 5 minutes at 37° C. Colonies were picked under microscopic guidance and replated at 1:3 to 1:6 split ratios. […] (20 ng/ml). […] In human embryonic stem cells (hESCs), manipulations of Nodal and Wnt signaling have been exploited to direct differentiation towards definitive endoderm (DE). […] Therefore, to induce differentiation of HESCs into definitive endoderm using small molecules, the present study analyzed effects of compounds which could substitute for Activin A or/and Wnt signaling. […] Cells were cultured in the presence of diverse combinations of these three compounds for 6 days, and expression of pluripotency marker (OCT4) and definitive endoderm markers (SOX17 and FoxA2) were analyzed using qPCR. […] The expression of pluripotency markers (OCT4, Nanog and SOX2) and definitive endoderm (DE) markers (SOX17 and FOXA2) were analyzed using qPCR. […]

[5] = Table 1 (initial results), cell viability, 24 hours treatment
[6] = Table 2 (updated results), cell viability, 24 hours treatment, PHHs

Molecule O=C(O)Cc1ccccc1Nc1c(Cl)cccc1Cl [Diclofenac] has an IC50 [1, 5] of 3590 µM, an IC50 [1, 6] of 3590 µM and an IC50 [2, 5] of 1930 µM. For the same molecule, the IC50 [3, 5] was 1860 µM.
Cc1c(C)c2c(c(C)c1O)CCC(C)(COc1ccc(CC3SC(=O)NC3=O)cc1)O2 (stereo not shown) [Troglitazone] showed an IC50 [1, 5] of 85 µM, an IC50 [1, 6] of 29.7 µM and an IC50 [2, 5] of 31.9 µM. The IC50 [3, 5] was 33.7 µM.
With O=C(O)CCCCCC(=O)NN=C1CCCC1 [IDE-2] the FOXA2 expression [4] was “highest FOXA2 expression” and the SOX17 expression [4] was “no SOX17 expression was detected”.
In the case of CC(=O)Nc1ccc(O)cc1 [Acetaminophen], the IC50 [1, 5] is reported as 45200 µM, the IC50 [1, 6] is reported as 45200 µM and the IC50 [2, 5] is reported as 38100 µM. For the same molecule, the IC50 [3, 5] was 46000 µM.
CN(C)CCCN1c2ccccc2Sc2ccc(Cl)cc21 [Chlorpromazine] was tested, and the IC50 [1, 5] was 71.8 µM, the IC50 [1, 6] was 71.8 µM and the IC50 [2, 5] was 66.9 µM. The IC50 [3, 5] was 61.3 µM.
C[C@H]1O[C@@H](O[C@H]2[C@@H](O)C[C@H](O[C@H]3[C@@H](O)C[C@H](O[C@H]4CC[C@@]5(C)[C@H](CC[C@@H]6[C@@H]5C[C@@H](O)[C@]5(C)[C@@H](C7=CC(=O)OC7)CC[C@]65O)C4)O[C@@H]3C)O[C@@H]2C)C[C@H](O)[C@@H]1O [Digoxin] gave an IC50 [1] of 0.34 µM, an IC50 ([2]; 24 h) of 0.36 µM and an IC50 ([3]; 24 h) of 0.25 µM.
C=C[C@H]1C[N@@]2CC[C@H]1C[C@@H]2[C@@H](O)c1ccnc2ccc(OC)cc12 [Quinidine] gave an IC50 [1, 5] of 198 µM, an IC50 [1, 6] of 563 µM and an IC50 [2, 5] of 728 µM. For the same molecule, the IC50 [3, 5] was 538 µM.

— US10323228B2, “Differentiation of hepatocyte-like cells from stem cells” (Agency for Science, Technology and Research, priority 2014, dated 2019)
